Data published in patent US9295627B2 (priority 2011, dated 2016).
Where two headings read alike, the source gives them in different places.

Key:
[1] = Acute toxicity test; conditions: female, BALB/c, mouse, in vivo, ip
Procedure: Two grams of any one of the adenosine N1-oxide obtained in Experiment 1, the 3′-glucosyladesonine N1-oxide and 5′-glucosyladenosine N1-oxide obtained in Experiment 2, and the 5′-adenosine diphosphate N1-oxide and 5′-adenosine triphosphate N1-oxide obtained in Experiment 3 was dissolved in 100 mL of D-PBS (Dulbecco's Phosphate-Buffered Salines). The resulting solution was intraperitoneally administered to 10 BALB/c female mice, six-week-old, with an average body mass of 20 g each, commercialized by Charles River Laboratories Japan, Inc., Kanagawa, Japan, at a dose of one milliliter/head, followed by observation for 24 hours. As a control, only D-PBS was intraperitoneally administered to 10 BALB/c female mice, six-week-old, with an average body mass of 20 g each, commercialized by Charles River Laboratories Japan, Inc., Kanagawa, Japan, at a dose of one milliliter/head, followed by observation for 24 hours. Thereafter, each mouse was collected her blood and urine for measuring clinical test items as indexes for renal and liver functions. […] As a result, adenosine N1-oxide, 3′-glucosyladenosine N1-oxide, 5‘-glucosyladenosine N1-oxide, 5’-adenosinme diphosphate N1-oxide, and 5′-adenosine triphosphate N1-oxide have an LD50 of at least 1,000 mg/kg, respectively. Thus, these compounds are judged as substances safely administrable to humans.

[2] = Solubility in solvents such as water; type: physicochemical
[3] = test system: medium periodontal diseases; experiment: Volunteer test 2: tooth mobility after mouthwash use, concentration series; type: in vivo, human; conditions: aqueous mouthwash, % by mass, Experiment 6
Text: • A: A distinct improvement in tooth mobility is observed on a tooth mobility test (or periodontometry) with a pincette compared with that before initiating the test; • B: Somewhat improvement in tooth mobility is observed on a tooth mobility test with a pincette compared with that before initiating the test; and • C: No improvement or rather aggravation is observed on a tooth mobility test with a pincette compared with that before initiating the test.
For adenosine N1-oxide, which had marked the highest improvement effect on periodontal diseases in Experiment 5, it was examined in more detail for its improvement action on periodontal diseases: Eight females, 20- to 30-year-old, as subjects, who were healthy except for suffering from medium periodontal diseases (with a periodontal pocket depth of 3 mm or deeper but less than 6 mm), were subjected to a volunteer test similarly as in Experiment 5 except for using six types of aqueous solutions containing 0.001 to 7.5% adenosine N1-oxide and setting a test period of seven months. […]
The subjects were allowed to brush their teeth with the same toothpaste as used in Experiment 5. […] Before initiating the test, a dental hygienist under a doctor's guidance evaluated the conditions of gingivitis for each subject […] based on the same criteria as shown in Experiment 5.

[4] = 1000 mg/kg, intraperitoneal, 2 g in 100 mL D-PBS, one milliliter/head, mice of 20 g, observation for 24 hours, read-out: LD50

SMILES	LD50 at 24 h [1, 4]	solubility in solvents such as water compared to adenosine N1-oxide [2]	LD50 at 24 h [1]	concentrations at which periodontal diseases are distinctly, effectively prevented and/or treated [3]
Nc1c2ncn([C@@H]3O[C@H](CO[C@H]4O[C@H](CO)[C@@H](O)[C@H](O)[C@H]4O)[C@@H](O)[C@H]3O)c2nc[n+]1[O-]	≥ 1000 mg/kg	higher solubility	–	–
Nc1c2ncn([C@@H]3O[C@H](CO)[C@@H](O[C@H]4O[C@H](CO)[C@@H](O)[C@H](O)[C@H]4O)[C@H]3O)c2nc[n+]1[O-]	≥ 1000 mg/kg	higher solubility	–	–
Nc1c2ncn(C3OC(COP(=O)(O)OP(=O)(O)O)C(O)C3O)c2nc[n+]1[O-] (centres unmarked) [5′-adenosine diphosphate N1-oxide]	–	higher solubility	–	–
Nc1c2ncn([C@@H]3O[C@H](CO)[C@@H](O)[C@H]3O)c2nc[n+]1[O-] [adenosine N1-oxide]	–	–	≥ 1000 mg/kg	≥ 0.5%
Nc1c2ncn([C@@H]3O[C@H](COP(=O)(O)OP(=O)(O)OP(=O)(O)O)[C@@H](O)[C@H]3O)c2nc[n+]1[O-] [5′-adenosine triphosphate N1-oxide]	–	higher solubility	–	–
